For 15 compounds, TGI and GI50 results are on record in PubChem BioAssay (NCI).

Test systems include K-562 leukemia; PC-3 prostate; NCI-H522 lung; HOP-62 NSCLC; SN12C renal; MALME-3M melanoma; T-47D breast; MOLT-4 leukemia; MDA-N; OVCAR-3 ovarian; MDA-MB-231 breast; UO-31 renal; M14 melanoma; OVCAR-5 ovarian; OVCAR-8 ovarian; 786-0 renal; A498 renal; SF-539 CNS; HOP-92 NSCLC.
What all share (assay): growth of human tumour cells (NCI), 48 h

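1) Cells in 96-well plates. 2) Compound, 48 h, 5 concentrations. 3) Linear interpolation between surrounding doses. 4) Unreached endpoint = highest concentration. Here, GI50 denotes the concentration required for 50% inhibition of growth. TGI: concentration producing complete growth inhibition.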

For the compound `O=[N+]([O-])c1ccc(N/N=C2/CC3=C2CCCCCCCCCC3)c([N+](=O)[O-])c1`, the TGI in the test with K-562 leukemia, in the test on PC-3 prostate, with NCI-H522 lung, in the test on HOP-62 NSCLC, in the test with SN12C renal and in the test on MALME-3M melanoma was above 100 µM each time. Further, the TGI in the test on T-47D breast, in the test on MOLT-4 leukemia, with MDA-N, in the test with OVCAR-3 ovarian, with MDA-MB-231 breast and in the test on UO-31 renal was above 100 µM throughout. For the same compound, the TGI in the test on M14 melanoma, with OVCAR-5 ovarian, in the test on OVCAR-8 ovarian, in the test with 786-0 renal and with A498 renal was above 100 µM each time.

As to `O=[N+]([O-])c1cccc(-c2ncc3c(n2)-c2ccccc2C3)c1`, the TGI in the test on K-562 leukemia, in the test on SF-539 CNS, with PC-3 prostate, in the test with NCI-H522 lung, in the test with SN12C renal and with MALME-3M melanoma was above 100 µM in each case. Further, the TGI in the test on T-47D breast, in the test with MOLT-4 leukemia, in the test with MDA-N, with MDA-MB-231 breast, in the test on UO-31 renal and in the test on M14 melanoma was above 100 µM in each case. The TGI with OVCAR-5 ovarian, in the test on OVCAR-8 ovarian, in the test with HOP-92 NSCLC and in the test with 786-0 renal was above 100 µM each time.

Consider `CCOC(=O)c1ccc(C(=O)n2ccnc2)[nH]1`, for which the TGI in the test on K-562 leukemia, in the test with PC-3 prostate, in the test with NCI-H522 lung, with HOP-62 NSCLC, in the test with SN12C renal and in the test on MALME-3M melanoma was above 100 µM in each case. The TGI in the test on T-47D breast, in the test with MOLT-4 leukemia, with MDA-N, in the test on OVCAR-3 ovarian, with MDA-MB-231 breast and with UO-31 renal was above 100 µM each time. For the same compound, the TGI in the test on M14 melanoma, in the test with OVCAR-5 ovarian, in the test on OVCAR-8 ovarian, in the test with 786-0 renal and with A498 renal was above 100 µM each time.

Consider `O=C(NNC1=NCCCN1)c1ccco1`, for which the TGI with K-562 leukemia, in the test on SF-539 CNS, with PC-3 prostate, in the test on NCI-H522 lung, in the test with HOP-62 NSCLC and in the test with SN12C renal was above 100 µM in each case. In addition, the TGI in the test on MALME-3M melanoma, in the test on T-47D breast, in the test on MOLT-4 leukemia, in the test with MDA-N, in the test with OVCAR-3 ovarian and in the test with MDA-MB-231 breast was above 100 µM each time. Besides, the TGI in the test with UO-31 renal, in the test with M14 melanoma, in the test on OVCAR-5 ovarian, with OVCAR-8 ovarian, with HOP-92 NSCLC and in the test with 786-0 renal was above 100 µM each time.

On to `Cc1cc(C)nc(NS(=O)(=O)c2ccc(Nc3c4ccccc4nc4c(C(=O)NC(CO)(CO)CO)cccc34)cc2)n1`, for which the TGI is above 100 µM in the test with K-562 leukemia; above 100 µM in the test with PC-3 prostate; 31.7 µM with NCI-H522 lung; above 100 µM in the test on HOP-62 NSCLC; above 100 µM in the test with SN12C renal; above 100 µM in the test with T-47D breast. Moreover, the TGI is above 100 µM with MOLT-4 leukemia; 68.8 µM with MDA-N; above 100 µM in the test with OVCAR-3 ovarian; above 100 µM in the test with MDA-MB-231 breast; above 100 µM in the test with UO-31 renal; above 100 µM with M14 melanoma. Also, the TGI in the test with OVCAR-5 ovarian is 88.4 µM; in the test on OVCAR-8 ovarian, above 100 µM; in the test on HOP-92 NSCLC, above 100 µM; in the test with 786-0 renal, above 100 µM; in the test on A498 renal, above 100 µM.

As for `O=c1[nH]c(N/N=C\C(=N/Nc2nc3ccccc3c(=O)[nH]2)C(O)C(O)C(O)CO)nc2ccccc12` (stereo not given), the TGI in the test on K-562 leukemia, in the test with SF-539 CNS, in the test with PC-3 prostate, in the test on HOP-62 NSCLC, in the test with SN12C renal and in the test with T-47D breast was above 100 µM in each case. In addition, the TGI with MOLT-4 leukemia, in the test on MDA-N, with OVCAR-3 ovarian, with MDA-MB-231 breast, in the test with UO-31 renal and with M14 melanoma was above 100 µM each time. For the same compound, the TGI with OVCAR-5 ovarian, in the test on OVCAR-8 ovarian, in the test with HOP-92 NSCLC, with 786-0 renal and in the test with A498 renal was above 100 µM each time.

Consider `C=C1C[C@@H]2O[C@H]3[C@H]4[C@@H](C[C@@H](C)[C@@H](OC(C)=O)[C@H]42)[C@@H](C)CO[C@@]3(C)[C@H](OC(=O)CCCCCCC)C[C@H]1O`, for which the TGI with K-562 leukemia is above 100 µM; with SF-539 CNS, 40.5 µM; in the test with PC-3 prostate, 28.7 µM; in the test with NCI-H522 lung, 34.4 µM; in the test with HOP-62 NSCLC it was 32.9 µM; with SN12C renal, 31.1 µM. The TGI with T-47D breast was determined as 24.6 µM; with MOLT-4 leukemia it was 52.7 µM; in the test on MDA-N it was 30.3 µM; with OVCAR-3 ovarian, 37.2 µM; in the test with MDA-MB-231 breast, 27 µM; in the test with UO-31 renal it was 29.7 µM. The TGI was 35.2 µM in the test on M14 melanoma; 32 µM with OVCAR-5 ovarian; 31.4 µM in the test on OVCAR-8 ovarian; 30.4 µM in the test with HOP-92 NSCLC; 28.9 µM with 786-0 renal; 30.8 µM with A498 renal.

Regarding `CC[C@]12C=CCN3CCC4(c5cc([C@@]6(C(=O)OC)CC7CN(CCc8c6[nH]c6ccccc86)C[C@@H]6CCCC[C@H]76)c(OC)cc5N(C)C4[C@](O)(C(=O)OC)C1OC(C)=O)[C@@H]32` (stereo not given in full), the TGI in the test with SF-539 CNS is below 0.01 µM; in the test on PC-3 prostate, below 0.01 µM; in the test with NCI-H522 lung, below 0.01 µM; in the test on HOP-62 NSCLC, 14.4 µM; with SN12C renal, 18.3 µM; in the test with MALME-3M melanoma, 4.95 µM. For the same compound, the TGI with T-47D breast is 38.5 µM; in the test on MOLT-4 leukemia it was above 100 µM; in the test with MDA-N it was below 0.01 µM; in the test on MDA-MB-231 breast it was below 0.01 µM; in the test with UO-31 renal, 8.58 µM; with M14 melanoma, 3.14 µM. In addition, the TGI in the test on OVCAR-5 ovarian came to 8.83 µM; with HOP-92 NSCLC, 16.9 µM; in the test on 786-0 renal it was 12.5 µM. Further, the GI50 with HOP-92 NSCLC is 0.0672 µM.

As for `O=c1cc(NNCc2ccccc2)[nH]c(=O)[nH]1`, the TGI in the test on K-562 leukemia, in the test with SF-539 CNS, in the test with PC-3 prostate, in the test with HOP-62 NSCLC, in the test on SN12C renal and in the test on MALME-3M melanoma was above 100 µM throughout. The TGI is 67 µM in the test with T-47D breast; above 100 µM with MOLT-4 leukemia; above 100 µM with MDA-N; above 100 µM in the test with OVCAR-3 ovarian; above 100 µM with MDA-MB-231 breast; above 100 µM with UO-31 renal. Moreover, the TGI in the test with M14 melanoma, with OVCAR-5 ovarian, in the test on OVCAR-8 ovarian, in the test with HOP-92 NSCLC, in the test on 786-0 renal and in the test with A498 renal was above 100 µM in each case.

As for `CCCC1CC(=O)NC(=O)C1C(=O)OC(C)(C)C` (stereo not given), the TGI with K-562 leukemia, in the test with PC-3 prostate, with NCI-H522 lung, in the test on HOP-62 NSCLC, in the test with SN12C renal and in the test on MALME-3M melanoma was above 100 µM in each case. The TGI in the test on T-47D breast, in the test with MOLT-4 leukemia, in the test with MDA-N, in the test with OVCAR-3 ovarian, with MDA-MB-231 breast and with UO-31 renal was above 100 µM in each case. The TGI with OVCAR-5 ovarian, with OVCAR-8 ovarian, in the test on 786-0 renal and in the test on A498 renal was above 100 µM throughout.

As for `Cc1c2c(nc3ccccc13)C(=O)c1cccnc1C2=O`, the TGI was above 100 µM with K-562 leukemia; 54.2 µM in the test on SF-539 CNS; 73.1 µM with PC-3 prostate; 47.8 µM in the test on NCI-H522 lung; above 100 µM in the test on HOP-62 NSCLC; above 100 µM in the test with SN12C renal. The TGI in the test on MALME-3M melanoma was 3.56 µM; in the test with T-47D breast, 87.8 µM; with MOLT-4 leukemia, 64.7 µM; in the test on MDA-N, 3.16 µM; in the test on OVCAR-3 ovarian, 43.9 µM; in the test on MDA-MB-231 breast, above 100 µM. The TGI in the test with UO-31 renal is above 100 µM; in the test on M14 melanoma, 48.8 µM; in the test with OVCAR-5 ovarian, above 100 µM; in the test on OVCAR-8 ovarian it was 77.9 µM; in the test on HOP-92 NSCLC it was above 100 µM; with 786-0 renal, above 100 µM.

On to `Cc1cc(=O)oc2c(CNC(CO)C(=O)O)c(O)ccc12` (stereo not given), for which the TGI with K-562 leukemia, in the test on SF-539 CNS, in the test with PC-3 prostate, in the test with NCI-H522 lung, with HOP-62 NSCLC and with SN12C renal was above 100 µM throughout. In addition, the TGI in the test on MALME-3M melanoma, with T-47D breast, in the test on MOLT-4 leukemia, in the test on MDA-N, in the test with OVCAR-3 ovarian and in the test on MDA-MB-231 breast was above 100 µM in each case. The TGI in the test with UO-31 renal, in the test with M14 melanoma, in the test on OVCAR-5 ovarian, with OVCAR-8 ovarian, in the test with HOP-92 NSCLC and in the test on 786-0 renal was above 100 µM throughout.

As to `COc1ccc2c(C)c(Oc3c(Cl)c(Cl)c(O)c(C#N)c3C#N)oc2c1`, the TGI in the test with K-562 leukemia, in the test on SF-539 CNS, in the test on PC-3 prostate, with NCI-H522 lung, in the test with HOP-62 NSCLC and in the test on SN12C renal was above 100 µM in each case. Further, the TGI in the test with MALME-3M melanoma, in the test with T-47D breast, with MOLT-4 leukemia, with MDA-N, in the test on OVCAR-3 ovarian and in the test with MDA-MB-231 breast was above 100 µM throughout. The TGI in the test with UO-31 renal, in the test on M14 melanoma, in the test on OVCAR-5 ovarian, with OVCAR-8 ovarian, in the test with 786-0 renal and in the test on A498 renal was above 100 µM each time.

In the case of `COc1ccc2c(=O)cc(-c3ccc(OC)c(OC)c3OC)oc2c1`, the TGI in the test with K-562 leukemia, with SF-539 CNS, in the test with PC-3 prostate, with NCI-H522 lung, in the test on HOP-62 NSCLC and with SN12C renal was above 100 µM throughout. In addition, the TGI is above 100 µM with MALME-3M melanoma; above 100 µM with T-47D breast; above 100 µM in the test with MOLT-4 leukemia; above 100 µM with MDA-N; above 87.6 µM in the test on OVCAR-3 ovarian; above 100 µM in the test on MDA-MB-231 breast. Besides, the TGI in the test on UO-31 renal, in the test with M14 melanoma, in the test with OVCAR-5 ovarian, in the test on OVCAR-8 ovarian, in the test with HOP-92 NSCLC and in the test with 786-0 renal was above 100 µM each time.

Regarding `CCOC(=O)CC1(Cc2ccc(OCc3ccccc3)cc2)C(=O)OC(c2ccccc2)N1C(=O)c1ccccc1` (stereo not given), the TGI with K-562 leukemia, in the test on SF-539 CNS, in the test with PC-3 prostate, with NCI-H522 lung, in the test on HOP-62 NSCLC and in the test with SN12C renal was above 100 µM each time. In addition, the TGI with MALME-3M melanoma, in the test with T-47D breast, with MOLT-4 leukemia, with MDA-N, in the test on OVCAR-3 ovarian and in the test on MDA-MB-231 breast was above 100 µM each time. Moreover, the TGI with UO-31 renal, with M14 melanoma, in the test on OVCAR-5 ovarian, with OVCAR-8 ovarian, with HOP-92 NSCLC and with 786-0 renal was above 100 µM in each case.
